In ChEMBL document CHEMBL1159080, “Discovery of cyclicsulfonamide derivatives as 11 beta-hydroxysteroid dehydrogenase 1 inhibitors” (Bioorg Med Chem Lett, 2010):
pIC50: −log10 of the molar value.

Columns and labels:
[1] = target: 11-beta-hydroxysteroid dehydrogenase 1 (Mus musculus, UniProt P50172); experiment: Inhibition of 11beta-HSD1 in mouse C2C12 cells by HTRF cortisol assay; type: cell-based
[2] = target: 11-beta-hydroxysteroid dehydrogenase 1 (Homo sapiens, UniProt P28845); experiment: Inhibition of 11beta-HSD1 in human microsomes by HTRF cortisol assay; set-up: species or system Microsome
[3] = Half life in rat; type: ADME, organism-based; conditions: in vivo
[4] = target: T1, 11-beta-hydroxysteroid dehydrogenase type 2 (Homo sapiens) (UniProt P80365); experiment: Inhibition of human 11beta-HSD2 overexpressed in HEK293 cells at 20 uM by HTRF cortisol assay; type: cell-based
T1 sequence (whole entry): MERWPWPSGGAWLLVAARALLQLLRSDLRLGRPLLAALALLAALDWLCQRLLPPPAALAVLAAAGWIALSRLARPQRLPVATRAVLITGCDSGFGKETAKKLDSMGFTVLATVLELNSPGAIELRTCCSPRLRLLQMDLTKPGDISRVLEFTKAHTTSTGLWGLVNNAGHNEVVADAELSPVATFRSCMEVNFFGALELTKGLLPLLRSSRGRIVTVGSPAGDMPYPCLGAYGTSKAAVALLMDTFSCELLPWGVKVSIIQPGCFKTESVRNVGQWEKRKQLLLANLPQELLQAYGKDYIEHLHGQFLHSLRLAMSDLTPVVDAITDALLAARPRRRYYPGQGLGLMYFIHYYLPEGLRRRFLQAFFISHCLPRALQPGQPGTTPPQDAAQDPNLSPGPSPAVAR

[5] = Oral bioavailability in rat; type: ADME, organism-based; conditions: in vivo
[6] = Cmax in rat; type: ADME, organism-based; conditions: in vivo
[7] = target: Voltage-gated inwardly rectifying potassium channel KCNH2 (Homo sapiens, UniProt Q12809); experiment: Inhibition of human ERG
[8] = Half life in human liver microsomes; type: ADME, Microsome
Rattus norvegicus = organism: Rattus norvegicus; experiment: Clearance in rat; type: ADME, organism-based; conditions: in vivo

11-beta-hydroxysteroid dehydrogenase 1 (Homo sapiens, UniProt P28845), sequence (P28845 whole entry): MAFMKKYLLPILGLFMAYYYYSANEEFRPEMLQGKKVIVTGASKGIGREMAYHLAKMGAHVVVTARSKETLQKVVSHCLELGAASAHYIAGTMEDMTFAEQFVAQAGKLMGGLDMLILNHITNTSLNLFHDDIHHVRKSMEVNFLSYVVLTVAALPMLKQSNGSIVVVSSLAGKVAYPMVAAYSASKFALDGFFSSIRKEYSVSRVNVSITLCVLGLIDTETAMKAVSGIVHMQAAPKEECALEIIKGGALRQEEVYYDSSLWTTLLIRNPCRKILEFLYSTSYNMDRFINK
11-beta-hydroxysteroid dehydrogenase 1 (Mus musculus, UniProt P50172), sequence (P50172 whole entry): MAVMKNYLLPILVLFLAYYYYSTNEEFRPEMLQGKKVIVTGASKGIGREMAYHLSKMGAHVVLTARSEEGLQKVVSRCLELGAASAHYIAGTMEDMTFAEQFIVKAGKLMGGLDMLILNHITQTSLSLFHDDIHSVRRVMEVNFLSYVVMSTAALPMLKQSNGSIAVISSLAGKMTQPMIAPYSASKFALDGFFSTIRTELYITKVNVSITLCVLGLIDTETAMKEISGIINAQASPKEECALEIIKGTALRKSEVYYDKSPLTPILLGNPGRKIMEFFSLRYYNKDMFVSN
Voltage-gated inwardly rectifying potassium channel KCNH2, sequence (Q12809 whole entry): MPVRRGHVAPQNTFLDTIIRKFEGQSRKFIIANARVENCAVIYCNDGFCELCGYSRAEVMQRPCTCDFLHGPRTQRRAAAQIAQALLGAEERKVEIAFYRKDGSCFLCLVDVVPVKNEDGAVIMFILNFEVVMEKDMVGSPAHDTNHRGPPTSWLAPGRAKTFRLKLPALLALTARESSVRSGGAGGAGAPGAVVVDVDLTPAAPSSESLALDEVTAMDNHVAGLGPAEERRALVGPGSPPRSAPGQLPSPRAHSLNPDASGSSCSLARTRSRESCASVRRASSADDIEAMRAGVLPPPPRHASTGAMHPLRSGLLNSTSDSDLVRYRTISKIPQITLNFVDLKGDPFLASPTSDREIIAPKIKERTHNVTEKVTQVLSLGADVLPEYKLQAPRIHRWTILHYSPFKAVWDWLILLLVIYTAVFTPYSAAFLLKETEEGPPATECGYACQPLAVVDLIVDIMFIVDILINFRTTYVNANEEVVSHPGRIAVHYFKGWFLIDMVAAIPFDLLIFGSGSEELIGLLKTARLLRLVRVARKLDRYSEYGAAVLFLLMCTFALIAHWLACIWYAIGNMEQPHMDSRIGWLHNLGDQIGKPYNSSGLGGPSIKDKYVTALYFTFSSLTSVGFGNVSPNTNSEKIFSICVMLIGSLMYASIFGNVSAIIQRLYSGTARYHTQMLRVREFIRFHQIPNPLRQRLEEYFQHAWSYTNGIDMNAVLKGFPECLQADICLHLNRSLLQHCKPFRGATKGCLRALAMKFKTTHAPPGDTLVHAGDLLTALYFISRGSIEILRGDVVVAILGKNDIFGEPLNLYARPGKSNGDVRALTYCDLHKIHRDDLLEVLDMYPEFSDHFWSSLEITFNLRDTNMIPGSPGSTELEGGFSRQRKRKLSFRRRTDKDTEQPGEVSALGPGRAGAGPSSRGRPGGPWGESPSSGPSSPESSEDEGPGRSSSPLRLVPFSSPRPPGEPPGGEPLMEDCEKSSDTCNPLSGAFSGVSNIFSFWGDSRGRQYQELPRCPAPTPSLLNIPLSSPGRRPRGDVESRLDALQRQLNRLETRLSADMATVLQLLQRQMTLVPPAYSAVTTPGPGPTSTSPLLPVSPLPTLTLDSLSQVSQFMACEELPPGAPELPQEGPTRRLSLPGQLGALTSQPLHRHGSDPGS

Compound | pIC50 [1] | pIC50 [2] | further results
N#Cc1ccc(C(=O)CN2C(C(=O)c3ccccc3)=C(O)c3ccccc3S2(=O)=O)cc1 | 5.05 | 7.40 | 
O=C(O)c1ccc(C(=O)CN2C(C(=O)c3ccccc3)=C(O)c3ccccc3S2(=O)=O)cc1 |  | 6.14 | 
COC(=O)c1ccc(C(=O)CN2C(C(=O)c3ccccc3)=C(O)c3ccccc3S2(=O)=O)cc1 |  | 7.51 | 
O=C(CN1C(C(=O)c2ccccc2)=C(O)c2ccccc2S1(=O)=O)c1ccc([N+](=O)[O-])cc1 |  | 7.52 | 

Further lines, with some results ahead:

pIC50 [1] | pIC50 [2] | Compound | further results
 | 7.55 | O=C(CN1C(C(=O)c2ccccc2)=C(O)c2ccccc2S1(=O)=O)c1ccc(-c2ccccc2)cc1 | 
5.11 |  | O=C(CN1C(C(=O)c2ccccc2)=C(O)c2ccccc2S1(=O)=O)c1ccccc1 | half-life [3]: 5.5 h; inhibition [4]: 6%; bioavailability [5]: 48.7%; Cmax [6]: 1100 ng/mL; pIC50 [7]: < 4.00; half-life [8]: 1.25 h; CL (Rattus norvegicus): 6.7 mL/min/kg
